Data reported in US8802734B2, “Method of treating or preventing pain” (Novaremed Limited, priority 2009, dated 2014).

How the values were obtained:
[1] = tested on: Balb/c mice; assay: Formalin test; assay type: in vivo; settings: i.p. 0.2, 1, 2.5 mg/kg, formalin 1% intraplantar 3 h or 4 h after the treatment, FIGS. 12a-12e
Experimental: Formalin test. The method used was similar to that described by Hunscaar and Hole (1987) “The formalin test in mice: dissociation between inflammatory and non-inflammatory pain,” Pain 30, pp. 103-104.
Five animals are used in each group and two to three hours after oral administration of the conjugates, 40 μl or 20 μl (rats or mice, respectively) of a 1% formalin (in 0.9% saline) solution is injected subcutaneously into the dorsal surface hind paw. The formalin induced typical flinching behaviour of the injected paw which was counted. The animals were returned to a glass chamber and the total time spent by the animal licking or biting the injected paw was measured. Formalin induced pain behaviour is biphasic. The duration of paw licking was determined during the following two time periods: 0-5 min (first-neurogenic phase) and 20-30 min (second-inflammatory phase) after formalin injection.
Part a. Male mice (Balb/c mice, 27 weeks old, not naïve), were divided in 4 groups (5 mice per group) and treated (0 min, i.p.) with the following formulations, respectively: […]
Part b. Male mice (Balb/c mice, 27 weeks old, not naïve), were divided in 4 groups (5 mice in groups) and treated (0 min, i.p.) with the following formulations, respectively: […]

[2] = tested on: Balb/c mice; assay: Hot-Plate Test (antinociceptive effect), sub-chronic oral administration; assay type: in vivo; settings: po daily for 16 days, 0.1 and 5 mg/Kg, hot plate on days 1, 8 and 15
Description: The objective of the study was to assess antinociceptive activity of tested items in the hot plate tests in mice, when administered sub-chronically. Measuring paw licking or jumping response time elapses following placement on heated surface (hot plate) was used to determine potential antinociceptive effect in mice.
A total of 42 Balb/c mice (12 weeks old) were utilized. The mice were approximately 25 g males at study initiation. The minimum and maximum weights of the group were within a range of ±10% of group mean weight.
Compounds 2 and 3 were tested and compared with Diclofenac® (Perigo). DMSO solutions were used. Six groups of mice (each having n=7 or n=8 mice) were tested, the last group receiving Diclofenac®.
All groups received the drugs daily po for 16 days. Hot plate experiments were performed on days; 1, 8 and 15.
The hot plate is maintained thermostatically at a temperature of 52° C. One hour before the administration of the drugs, mice are tested in the hot plate. At time 0 the mice are administered with the test compound and the response to the hot plate is measured again at different times: 60, 120, 180, 240, 300 and 360 min.
Results are expressed as: Delta from maximum response [baseline vs. maximum response]; Absolute measures over time; and Accumulated time.

| SMILES | anti-inflammatory properties (formalin test) [1] | effectiveness as pain relievers (hot plate test) [2] |
| --- | --- | --- |
| CC(O)COCC(Cc1ccc(O)cc1)NC(=O)CCc1ccccc1 (stereo not drawn) [Compound 2] | confirm the anti-inflammatory properties | effective as pain relievers |
| O=C(CCc1ccccc1)NC(COCCO)Cc1ccc(O)cc1 (stereo not drawn) [Compound 3] | – | effective as pain relievers |
